Laboratory results: paper PMC11224359, “Stable peptide-assembled nanozyme mimicking dual antifungal actions” (Nature Communications, 2024)
Like-named read-outs stand apart in the source and are kept apart here. Starred links: 1 amine or outer side, 2 acyl side, 3 side chain; linkers in the order of their positions; H or OH if unused. Positions of bridges follow the written chain, without caps; N, C: chain ends. Non-standard residues stand in square brackets, D forms with d. Residues, ends and D or L forms follow the SMILES beside them. No end group written: not given here. *: point of attachment. hTyr(3S-OH,4S-OH,3'-OSO3H) = N[C@H](C(=O)O)[C@H](O)[C@@H](O)c1ccc(O)c(OS(=O)(=O)O)c1; pTerphenylCO(4''-OnC5H11) = CCCCCOc1ccc(-c2ccc(-c3ccc(C(=O)*)cc3)cc2)cc1; Orn(4R-OH,5R-OH) = O=C([C@H](C[C@@H](O)[C@@H](O)N[*:3])N[*:1])[*:2]; hTyr(3S-OH,4S-OH) = N[C@H](C(=O)O)[C@H](O)[C@@H](O)c1ccc(O)cc1; Pro(3S-OH,4S-Me) = C[C@H]1CN[C@H](C(=O)O)[C@H]1O; X1 = CCCCCOc1ccc(-c2cc(-c3ccc(C(=O)*)cc3)no2)cc1; Gln(3R-OH) = NC(=O)C[C@@H](O)[C@H](N)C(=O)O; Hyp = O=C(O)[C@@H]1C[C@@H](O)CN1

Experiments:
[1] = Variable temperature circular dichroism; format: physicochemical
Protocol: The Ultraviolet-visible (UV-VIS) spectroscopy of samples were collected by a Shimadzu UV-3600. For FTIR, 3 mg of powdered sample and 50 mg of potassium bromide (KBr) were mixed for tablet compression analysis with transmittance at 400–4000 cm^−1, collected using an iS10 FTIR spectrometer (USA). Measurements were performed by averaging 32 scans at 4-cm^−1 resolution (signal-to-noise ratio (S/N) = 50,000). The single-molecule STM imaging experiments were performed under ambient conditions by using a Nanoscope IIIa SPM system (Bruker, USA). 10 μL of the peptide solution was incubated on the surface of freshly cleaved highly oriented pyrolytic graphite (HOPG) at room temperature for 20 min. Then the excess peptide solution was removed from the substrate surface. The STM tips were mechanically made by Ir/Pt wires (20/80). Different STM tips and samples were used in these imaging experiments to ensure reproducibility. […] Zeta potentials of samples were determined using a Zetasizer Nano ZS90 (England) via three tests in a 1-mL sample cell. All CD datum were collected using Chirascan Plus (England) and analyzed at 190-260 nm. […] Pyridine infrared (IR) were measured at 1400–1700 cm^−1 using Thermo Scientific Nicolet 380 (USA). […] The fluorescence signals (I374nm, I394nm) were collected for detecting CMC using the pyrene probe under excitation at 330 nm across various concentrations of peptides.

[2] = system: E. coli (CMCC(B)44102); experiment: Antibacterial activity, colony counting; format: cell-based, Escherichia coli
Protocol: (§1) The antibacterial effects of Ni-IH-7 were also evaluated with E. coli (CMCC(B)44102), S. aureus (ATCC 29213) and Methicillin-resistant Staphylococcus aureus (MRSA) (ATCC43300), G. vaginalis (ATCC14018) and metronidazole-resistant G. vaginalis (provided by Xishan People’s Hospital of Wuxi City) under the similar procedures as those for C. albicans. Initially, E. coli, S. aureus and MRSA stored at -80°C were thawed and inoculated into Luria-Bertani liquid culture medium for overnight shaking. The culture volume was 5 mL, and the incubation conditions were set at 37°C in an air incubator. The next day, E. coli, S. aureus and MRSA were transferred to fresh culture medium and incubated for 2 h to activate the bacteria. The inoculum was approximately 10^5-6 CFU mL^−1. The culture volume was 10 mL, and the conditions were maintained at 37 °C in an air incubator. The quantities of E. coli, S. aureus and MRSA could reach 10^7-8 CFU mL^−1. Mixtures of 100 µL of E. coli, S. aureus and MRSA with 100 µL of Ni-IH-7 solution were prepared in 800 µL of sterile water and incubated for 0–6 h. Subsequently, 100 µL of different dilutions of the mixture were evenly spread on Luria-Bertani agar plates, followed by incubation at 37 °C from 24 to 48 h, and colony counting assay was performed to determine antibacterial efficiency. Similarly, G. vaginalis stored at −80°C was thawed and inoculated into brain-heart infusion (BHI) medium. This BHI medium consisted of brain/heart infusion broth containing 1% gelatin, 1% yeast extract, 0.1% soluble starch, 0.1% glucose, and 10% fetal bovine serum, and the inoculation process occurred overnight. The volume of the medium used was 5 mL, and the incubation condition was set at 37 °C in an incubator with 5% CO2. Following an overnight incubation post-inoculation, the necessary amount of bacterial solution was taken and transferred into fresh medium at a ratio of 1:25. This fresh medium was then cultured at 37°C with 5% CO2 for 6–8 h until the OD600 reached approximately 0.5. Next, an appropriate quantity of the bacterial inoculum was centrifuged at 4300 × g for 5 min at 4 °C to replace the bacteria from the culture medium with an equivalent volume of sterile water. For the experimental setup, 100 µL of G. vaginalis was mixed with 900 µL of sterile water as the control group. In the experimental group, 100 µL of G. vaginalis was mixed with either Ni-IH-7 solutions, Ni(Ac)2, or metronidazole in 800 µL of sterile water. The colony counting assay was performed to determine antibacterial efficiency.

[3] = PLC-like activity (PLC activity Assay Kit); format: biochemical
Protocol: To detect POD-like activity, 140 µL of sodium acetate buffer (pH 4.5, 0.2 M), 20 µL of 10 mM TMB, 20 µL of 1.5 mM Ni-IH-7 or 1.5 mM 4H2O·Ni(Ac)2, and 20 µL of H2O2 (50 mM) were added in order and reacted for 2 h at 37 °C. Absorbance at 652 nm was monitored using a microplate reader. PLC activity Assay Kit was used to detect PLC-like activity.

[4] = system: S. aureus (ATCC 29213); experiment: Antibacterial activity, colony counting; format: cell-based, Staphylococcus aureus
Protocol: as §1

[5] = system: G. vaginalis (ATCC14018); experiment: Antibacterial activity, colony counting; format: cell-based, Gardnerella vaginalis
Protocol: as §1

[6] = system: C. albicans (ATCC10231, ATCC90028, ATCC90029); parameters: key: R: resistant; S: susceptible; DD-S: Dose dependent-susceptible; conditions: ref ATCC; cited from earlier work
Source text: […] T h re e times each experiment was repeated independently with similar results. Representative images are shown. (1 picture or pasted object on this page, not shown here)

[7] = system: snailase
[8] = system: lyticase
[9] = system: neutral protease
[10] = 25 μg mL-1, in sterile water, replicate 1 of n = 3
[11] = 25 μg mL-1, in sterile water, replicate 2 of n = 3
[12] = 25 μg mL-1, in sterile water, replicate 3 of n = 3
[13] = 50 μg mL-1, in sterile water, replicate 1 of n = 3
[14] = 50 μg mL-1, in sterile water, replicate 2 of n = 3
[15] = 50 μg mL-1, in sterile water, replicate 3 of n = 3
[16] = 100 μg mL-1, in sterile water, replicate 1 of n = 3
[17] = 100 μg mL-1, in sterile water, replicate 2 of n = 3
[18] = 100 μg mL-1, in sterile water, replicate 3 of n = 3

Compound: IHIHICI [IH-7]
- thermal stability of conformation ([1]; variable temperature CD, 20–95 °C): changed from random coil at low temperature to α-helix at high temperature

Compound: CC(=O)[O-].CC(=O)[O-].O.O.O.O.[Ni+2] [Ni2+, nickel acetate]
- Antimicrobial activity toward E. coli (Figure 7a) [2, 10]: 6.041
- Antimicrobial activity toward E. coli (Figure 7a) [2, 11]: 6.4456
- Antimicrobial activity toward E. coli (Figure 7a) [2, 12]: 6.497
- Antimicrobial activity toward E. coli (Figure 7a) [2, 13]: 5.633
- Antimicrobial activity toward E. coli (Figure 7a) [2, 14]: 6.487
- Antimicrobial activity toward E. coli (Figure 7a) [2, 15]: 6.525
- Antimicrobial activity toward E. coli (Figure 7a) [2, 16]: 5.929
- Antimicrobial activity toward E. coli (Figure 7a) [2, 17]: 6.479
- Antimicrobial activity toward E. coli (Figure 7a) [2, 18]: 6.497
- PLC-like activity (Figure 5d) ([3]; replicate 1 of n = 3): 0.0001855
- PLC-like activity (Figure 5d) ([3]; replicate 2 of n = 3): 0.002181
- PLC-like activity (Figure 5d) ([3]; replicate 3 of n = 3): 0.003085
- Antimicrobial activity toward S. aureus (Figure 7b) [4, 10]: 7.5682
- Antimicrobial activity toward S. aureus (Figure 7b) [4, 11]: 6.875
- Antimicrobial activity toward S. aureus (Figure 7b) [4, 12]: 7.049
- Antimicrobial activity toward S. aureus (Figure 7b) [4, 13]: 7.146
- Antimicrobial activity toward S. aureus (Figure 7b) [4, 14]: 6.498
- Antimicrobial activity toward S. aureus (Figure 7b) [4, 15]: 7.364
- Antimicrobial activity toward S. aureus (Figure 7b) [4, 16]: 6.991
- Antimicrobial activity toward S. aureus (Figure 7b) [4, 17]: 7.161
- Antimicrobial activity toward S. aureus (Figure 7b) [4, 18]: 7.352
- Antimicrobial activity toward G. vaginalis (Figure 7c) ([5]; 10 μg mL-1, in sterile water, replicate 1 of n = 3): 5.431
- Antimicrobial activity toward G. vaginalis (Figure 7c) ([5]; 10 μg mL-1, in sterile water, replicate 2 of n = 3): 5.477
- Antimicrobial activity toward G. vaginalis (Figure 7c) ([5]; 10 μg mL-1, in sterile water, replicate 3 of n = 3): 5.4624
- Antimicrobial activity toward G. vaginalis (Figure 7c) [5, 13]: 5.826
- Antimicrobial activity toward G. vaginalis (Figure 7c) [5, 14]: 5.602
- Antimicrobial activity toward G. vaginalis (Figure 7c) [5, 15]: 5.74
- Antimicrobial activity toward G. vaginalis (Figure 7c) [5, 16]: 5.13
- Antimicrobial activity toward G. vaginalis (Figure 7c) [5, 17]: 5.041
- Antimicrobial activity toward G. vaginalis (Figure 7c) [5, 18]: 5.1038

Compound: CCC(C)n1ncn(-c2ccc(N3CCN(c4ccc(OCC5COC(Cn6cncn6)(c6ccc(Cl)cc6Cl)O5)cc4)CC3)cc2)c1=O (centres unmarked) [Itraconazole]
- resistance degree of C. albicans ATCC 10231 [6]: R
- resistance degree of C. albicans ATCC 90028 [6]: DD-S
- resistance degree of C. albicans ATCC 90029 [6]: S

Compound: CCCCCOc1ccc(-c2cc(-c3ccc(C(=O)N[C@H]4C[C@@H](O)[C@@H](O)NC(=O)[C@@H]5[C@@H](O)[C@@H](C)CN5C(=O)[C@H]([C@H](O)CC(N)=O)NC(=O)[C@H]([C@H](O)[C@@H](O)c5ccc(O)c(OS(=O)(=O)O)c5)NC(=O)[C@@H]5C[C@@H](O)CN5C(=O)[C@H]([C@@H](C)O)NC4=O)cc3)no2)cc1 [Micafungin] (X1-[Orn(4R-OH,5R-OH)]T[Hyp][hTyr(3S-OH,4S-OH,3'-OSO3H)][Gln(3R-OH)][Pro(3S-OH,4S-Me)]; lactam 1-C)
- resistance degree of C. albicans ATCC 10231 [6]: S
- resistance degree of C. albicans ATCC 90028 [6]: S
- resistance degree of C. albicans ATCC 90029 [6]: S

Compound: CCCCCOc1ccc(-c2ccc(-c3ccc(C(=O)N[C@H]4C[C@@H](O)[C@@H](O)NC(=O)[C@@H]5[C@@H](O)[C@@H](C)CN5C(=O)[C@H]([C@@H](C)O)NC(=O)[C@H]([C@H](O)[C@@H](O)c5ccc(O)cc5)NC(=O)[C@@H]5C[C@@H](O)CN5C(=O)[C@H]([C@@H](C)O)NC4=O)cc3)cc2)cc1 [Anidulafungin] ({pTerphenylCO(4''-OnC5H11)}-[Orn(4R-OH,5R-OH)]T[Hyp][hTyr(3S-OH,4S-OH)]T[Pro(3S-OH,4S-Me)]; lactam 1-C)
- resistance degree of C. albicans ATCC 10231 [6]: R
- resistance degree of C. albicans ATCC 90028 [6]: S
- resistance degree of C. albicans ATCC 90029 [6]: S

Compound: CC[C@H](C)C[C@H](C)CCCCCCCCC(=O)N[C@H]1C[C@@H](O)[C@@H](NCCN)NC(=O)[C@@H]2[C@@H](O)CCN2C(=O)[C@H]([C@H](O)CCN)NC(=O)[C@H]([C@H](O)[C@@H](O)c2ccc(O)cc2)NC(=O)[C@@H]2C[C@@H](O)CN2C(=O)[C@H]([C@@H](C)O)NC1=O [Caspofungin]
- resistance degree of C. albicans ATCC 10231 [6]: S
- resistance degree of C. albicans ATCC 90028 [6]: S
- resistance degree of C. albicans ATCC 90029 [6]: S

Compound: C[C@@H](c1ncncc1F)[C@](O)(Cn1cncn1)c1ccc(F)cc1F [Voriconazole]
- resistance degree of C. albicans ATCC 10231 [6]: S
- resistance degree of C. albicans ATCC 90028 [6]: S
- resistance degree of C. albicans ATCC 90029 [6]: S

Compound: Nc1nc(=O)[nH]cc1F [5-Flucytosine]
- resistance degree of C. albicans ATCC 10231 [6]: S
- resistance degree of C. albicans ATCC 90028 [6]: S
- resistance degree of C. albicans ATCC 90029 [6]: R

Compound: IHIHICI [Ni-IH-7]
- resistance to enzymatic degradation by snailase [7]: considerable resistance to enzymatic degradation
- resistance to enzymatic degradation by lyticase [8]: considerable resistance to enzymatic degradation
- thermal stability of conformation [1]: retained β-sheet conformation
- resistance to enzymatic degradation by neutral protease [9]: considerable resistance to enzymatic degradation

Compound: OC(Cn1cncn1)(Cn1cncn1)c1ccc(F)cc1F [Fluconazole]
- resistance degree of C. albicans ATCC 10231 [6]: R
- resistance degree of C. albicans ATCC 90028 [6]: S
- resistance degree of C. albicans ATCC 90029 [6]: S
